Source: US9493430B2, “Biaryl- or heterocyclic biaryl-substituted cyclohexene derivative compounds as CETP inhibitors” (CHONG KUN DANG PHARMACEUTICAL CORP., priority 2013, dated 2016)

Assays:
CETP = CETP (Homo sapiens (Human), UniProt P11597); assay: Test for inhibition of cholesteryl ester transfer (in vitro); type: biochemical; settings: human plasma as CETP source, LDL from healthy persons as acceptor, rHDL-agarose donor, 37° C.
Source text: Test for Inhibition of Cholesteryl Ester Transfer (In Vitro)
1. Construction of Cholesteryl Ester Donor
To construct a cholesteryl ester donor to be used in the test, radiolabeled recombinant HDL containing […] (GE healthcare, TRK886, 3.5 μCi/mg of apoA-1) and apoA-1 was synthesized. Then, rHDL-agarose having the recombinant HDL immobilized thereon by CNBr-activated Sepharose 4B (Amersham Biosciences, Sweden) resin was used in the test.
2. Cholesteryl Ester Transfer Test
As a protein source for cholesteryl ester transfer, plasma from healthy persons was used, and as a cholesteryl ester receptor, LDL from healthy persons was used. Samples were treated with each test compound to final concentrations of 16, 80, 400, 2000 and 10000 nM and analyzed in duplicate. For the cholesteryl ester transfer test, 20 μl of plasma, 50 μl of LDL (0.25 mg/ml) and 50 μl of rHDL-agarose (0.25 mg/ml) were added, and a solution containing a test compound was added, followed by reaction at 37° C. Then, centrifugation was performed at 4° C. for 3 minutes to stop the reaction, and 150 μl of the supernatant was taken and transferred to a 96-well plate for radioactivity measurement, and the radioactivity of the plate was measured with a beta-ray detector.
(§1) 3. Statistical Processing
The ratio of [^3H]-cholesteryl oleate from HDL to LDL was calculated and used as a result value, and from the result value, IC50 value was calculated using GraphPad Prism 5.0.

golden Syrian hamsters = assay: Test for anti-hyperlipidemic effect in hamsters (in vivo); settings: Mesocricetus auratus, po, 3 mg/kg orally for 5 days, blood 4 hours after final administration, vs control; for inhibition in vivo at 3 mg/kg: read-out: Decrease in LDL-c (%); for change in vivo at 3 mg/kg: read-out: Increase in HDL-c (%)
Source text: Test for Anti-Hyperlipidemic Effect in Hamsters (In Vivo)
In this test, 8-week-old male golden Syrian hamsters were used. The breeding room was maintained at constant temperature and constant humidity and a 12-hr light/12-hr dark cycle. The animals were allowed access to feed and water ad libitum.
2. Anti-Hyperlipidemic Test in Hamsters
The test animals were acclimated for 1 week before use in the test. The test animals were divided according to body weight into several groups, each consisting of 5-8 animals, and were then administered orally with a dose of 3 mg/kg. A solvent control and a CETP inhibitor were dissolved in imwitor 742: tween 80 (1:1) and administered orally for 5 days, and at 4 hours after the final administration, blood was collected from the heart. The collected blood was centrifuged at 3000 rpm for 15 minutes, and the separated serum was measured for HDL-Cholesterol (Biosystem) and LDL-Cholesterol (Biosystem) using a biochemical analysis instrument (ILab 300 plus, Instrumentation Laboratory).
as §1
All test results were expressed as Mean±SEM, and to evaluate the effect of each test group, each test group was compared with the control group using one-way ANOVA test (Dunnett's test, p<0.001).

Sequence of CETP (P11597 18-493): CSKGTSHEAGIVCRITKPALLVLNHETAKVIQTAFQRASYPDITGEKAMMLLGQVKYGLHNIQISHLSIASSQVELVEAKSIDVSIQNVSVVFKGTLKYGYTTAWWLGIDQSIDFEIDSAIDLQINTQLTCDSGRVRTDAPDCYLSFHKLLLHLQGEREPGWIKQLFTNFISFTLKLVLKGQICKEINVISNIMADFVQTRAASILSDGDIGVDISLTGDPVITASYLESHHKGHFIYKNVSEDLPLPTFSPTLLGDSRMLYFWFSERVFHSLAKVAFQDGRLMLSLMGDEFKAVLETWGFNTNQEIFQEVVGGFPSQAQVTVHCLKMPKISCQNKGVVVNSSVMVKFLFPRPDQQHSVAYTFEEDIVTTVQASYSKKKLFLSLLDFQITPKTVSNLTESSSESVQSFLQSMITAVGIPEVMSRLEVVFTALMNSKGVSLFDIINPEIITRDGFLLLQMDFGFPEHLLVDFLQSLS

IC50 (CETP) [nM] | SMILES | inhibition in vivo at 3 mg/kg (golden Syrian hamsters) [%] | change in vivo at 3 mg/kg (golden Syrian hamsters) [%]
6.6 | Cc1cc(C(=O)O)ccc1-c1cc(C2=C(CN3C(=O)O[C@H](c4cc(C(F)(F)F)cc(C(F)(F)F)c4)[C@@H]3C)CC(C)(C)CC2)ccc1F [Compound 681, 5′-(2-(((4S,5R)-5-(3,5-bis(trifluoromethyl)phenyl)-4-methyl-2-oxooxazolidin-3-yl)methyl)-4,4-dimethylcyclohex-1-enyl)-2′-fluoro-2-methylbiphenyl-4-carboxylic acid] | 29 | 25
1.6 | COc1ccc(-c2ccc(C(=O)O)cc2C(F)(F)F)cc1C1=C(CN2C(=O)O[C@H](c3cc(C(F)(F)F)cc(C(F)(F)F)c3)[C@@H]2C)CC(C)(C)CC1 [Compound 618, 3′-(2-(((4S,5R)-5-(3,5-bis(trifluoromethyl)phenyl)-4-methyl-2-oxooxazolidin-3-yl)methyl)-4,4-dimethylcyclohex-1-enyl)-4′-methoxy-2-(trifluoromethyl)biphenyl-4-carboxylic acid] | 26 | 65
1.5 | COc1ccc(-c2c(F)cc(C(=O)O)cc2F)cc1C1=C(CN2C(=O)O[C@H](c3cc(C(F)(F)F)cc(C(F)(F)F)c3)[C@@H]2C)CC(C)(C)CC1 [Compound 593, 3′-(2-(((4S,5R)-5-(3,5-bis(trifluoromethyl)phenyl)-4-methyl-2-oxooxazolidin-3-yl)methyl)-4,4-dimethylcyclohex-1-enyl)-2,6-difluoro-4′-methoxybiphenyl-4-carboxylic acid] | 29 | 61
1.9 | COc1cc(F)c(-c2ccc(C(=O)O)cc2Cl)cc1C1=C(CN2C(=O)O[C@H](c3cc(C(F)(F)F)cc(C(F)(F)F)c3)[C@@H]2C)CC(C)(C)CC1 [Compound 631, 5′-(2-(((4S,5R)-5-(3,5-bis(trifluoromethyl)phenyl)-4-methyl-2-oxooxazolidin-3-yl)methyl)-4,4-dimethylcyclohex-1-enyl)-2-chloro-2′-fluoro-4′-methoxybiphenyl-4-carboxylic acid] | 30 | 56
5.8 | COc1ccc(-c2ccc(C(=O)O)cc2C)cc1C1=C(CN2C(=O)O[C@H](c3cc(C(F)(F)F)cc(C(F)(F)F)c3)[C@@H]2C)CC(C)(C)CC1 [Compound 554, 3′-(2-(((4S,5R)-5-(3,5-bis(trifluoromethyl)phenyl)-4-methyl-2-oxooxazolidin-3-yl)methyl)-4,4-dimethylcyclohex-1-enyl)-4′-methoxy-2-methylbiphenyl-4-carboxylic acid] | 42 | 72
3.9 | COc1cc(F)c(-c2ccc(C(=O)O)cc2C)cc1C1=C(CN2C(=O)O[C@H](c3cc(C(F)(F)F)cc(C(F)(F)F)c3)[C@@H]2C)CC(C)(C)CC1 [Compound 574, 5′-(2-(((4S,5R)-5-(3,5-bis(trifluoromethyl)phenyl)-4-methyl-2-oxooxazolidin-3-yl)methyl)-4,4-dimethylcyclohex-1-enyl)-2′-fluoro-4′-methoxy-2-methylbiphenyl-4-carboxylic acid] | 36 | 41
6.4 | C[C@H]1[C@@H](c2cc(C(F)(F)F)cc(C(F)(F)F)c2)OC(=O)N1CC1=C(c2cc(-c3ccc(C(=O)O)cc3C(F)(F)F)ccc2F)CCC(C)(C)C1 [Compound 695, 3′-(2-(((4S,5R)-5-(3,5-bis(trifluoromethyl)phenyl)-4-methyl-2-oxooxazolidin-3-yl)methyl)-4,4-dimethylcyclohex-1-enyl)-4′-fluoro-2-(trifluoromethyl)biphenyl-4-carboxylic acid] | 35 | 71
2.5 | COc1cc(F)c(-c2ccc(C(=O)O)cc2F)cc1C1=C(CN2C(=O)O[C@H](c3cc(C(F)(F)F)cc(C(F)(F)F)c3)[C@@H]2C)CC(C)(C)CC1 [Compound 661, 5′-(2-(((4S,5R)-5-(3,5-bis(trifluoromethyl)phenyl)-4-methyl-2-oxooxazolidin-3-yl)methyl)-4,4-dimethylcyclohex-1-enyl)-2,2′-difluoro-4′-methoxybiphenyl-4-carboxylic acid] | 20 | 53
11.9 | Cc1cc(C(=O)O)ccc1-c1cc(F)cc(C2=C(CN3C(=O)O[C@H](c4cc(C(F)(F)F)cc(C(F)(F)F)c4)[C@@H]3C)CC(C)(C)CC2)c1 [Compound 650, 3′-(2-(((4S,5R)-5-(3,5-bis(trifluoromethyl)phenyl)-4-methyl-2-oxooxazolidin-3-yl)methyl)-4,4-dimethylcyclohex-1-enyl)-5′-fluoro-2-methylbiphenyl-4-carboxylic acid] | 24 | 50
5.4 | COc1ncc(-c2ccc(C(=O)O)cc2C)cc1C1=C(CN2C(=O)O[C@H](c3cc(C(F)(F)F)cc(C(F)(F)F)c3)[C@@H]2C)CC(C)(C)CC1 [Compound 557, 4-(3-(2-(((4S,5R)-5-(3,5-bis(trifluoromethyl)phenyl)-4-methyl-2-oxooxazolidin-3-yl)methyl)-4,4-dimethylcyclohex-1-enyl)-2-methoxypyridin-5-yl)-3-methylbenzoic acid] | 39 | 77
5 | C[C@H]1[C@@H](c2cc(C(F)(F)F)cc(C(F)(F)F)c2)OC(=O)N1CC1=C(c2cc(F)cc(-c3ccc(C(=O)O)cc3C(F)(F)F)c2)CCC(C)(C)C1 [Compound 668, 3′-(2-(((4S,5R)-5-(3,5-bis(trifluoromethyl)phenyl)-4-methyl-2-oxooxazolidin-3-yl)methyl)-4,4-dimethylcyclohex-1-enyl)-5′-fluoro-2-(trifluoromethyl)biphenyl-4-carboxylic acid] | 16 | 44
7.3 | COc1ccc(-c2ccc(C(=O)O)cc2Cl)cc1C1=C(CN2C(=O)O[C@H](c3cc(C(F)(F)F)cc(C(F)(F)F)c3)[C@@H]2C)CC(C)(C)CC1 [Compound 643, 3′-(2-(((4S,5R)-5-(3,5-bis(trifluoromethyl)phenyl)-4-methyl-2-oxooxazolidin-3-yl)methyl)-4,4-dimethylcyclohex-1-enyl)-2-chloro-4′-methoxybiphenyl-4-carboxylic acid] | 17 | 68
50.2 | COc1ccc(-c2ccc(C(=O)O)cc2OC)cc1C1=C(CN2C(=O)O[C@H](c3cc(C(F)(F)F)cc(C(F)(F)F)c3)[C@@H]2C)CC(C)(C)CC1 [Compound 597, 3′-(2-(((4S,5R)-5-(3,5-bis(trifluoromethyl)phenyl)-4-methyl-2-oxooxazolidin-3-yl)methyl)-4,4-dimethylcyclohex-1-enyl)-2,4′-dimethoxybiphenyl-4-carboxylic acid] | – | –
10.7 | Cc1cc(C(=O)O)ccc1-c1cccc(C2=C(CN3C(=O)O[C@H](c4cc(C(F)(F)F)cc(C(F)(F)F)c4)[C@@H]3C)CC(C)(C)CC2)c1 [Compound 651, 3′-(2-(((4S,5R)-5-(3,5-bis(trifluoromethyl)phenyl)-4-methyl-2-oxooxazolidin-3-yl)methyl)-4,4-dimethylcyclohex-1-enyl)-2-methylbiphenyl-4-carboxylic acid] | – | –
28.4 | COC(=O)c1ccc(-c2cnc(OC)c(C3=C(CN4C(=O)O[C@H](c5cc(C(F)(F)F)cc(C(F)(F)F)c5)[C@@H]4C)CC(C)(C)CC3)c2)c(C)c1 [Compound 555, methyl 4-(3-(2-(((4S,5R)-5-(3,5-bis(trifluoromethyl)phenyl)-4-methyl-2-oxooxazolidin-3-yl)methyl)-4,4-dimethylcyclohex-1-enyl)-2-methoxypyridin-5-yl)-3-methylbenzoate] | – | –
27 | COc1cc(C(F)(F)F)c(-c2ccc(C(=O)O)c(F)c2)cc1C1=C(CN2C(=O)O[C@H](c3cc(C(F)(F)F)cc(C(F)(F)F)c3)[C@@H]2C)CC(C)(C)CC1 [Compound 614, 5′-(2-(((4S,5R)-5-(3,5-bis(trifluoromethyl)phenyl)-4-methyl-2-oxooxazolidin-3-yl)methyl)-4,4-dimethylcyclohex-1-enyl)-3-fluoro-4′-methoxy-2′-(trifluoromethyl)biphenyl-4-carboxylic acid] | – | –
